Laboratory results from US5541174A, “Analgesic method” (priority 1995, dated 1996).
Several values for one entry are separate records, joined by “and”; a condition that tells them apart may be missing. Equal values may be shown once.

Experiments:
[1] = test system: acetic acid-induced writhing mouse pain model; experiment: Measurement of time of peak activity in the acetic acid-induced writhing mouse pain model; assay type: in vivo; conditions: for duration of analgesic effect: Table VII
Description: Groups of 10 ICR male mice (Taisho Pharmaceutical Co. Research Center) were used to study each dose of every compound. […] Number of writhes were counted for each mouse during a period of 10 to 20 min after acetic acid injection. Inhibitory percent was calculated by comparison with the number of writhes in the non-treated control, vehicle-treated, and acetic acid-injected group. The ED50 value and 95% confidence limits were calculated from the inhibitory percent by the method of Litchfield and Wilcoxon.
(§1) All drugs were suspended with 5% gum arabic in saline solution or wetted with enough propylene glycol to give a final concentration of 4% propylene glycol and the wetted solid suspended in 1.4% polyvinyl alcohol in saline.

[2] = test system: acetic acid-induced writhing mouse pain model; experiment: Naloxone reversal of analgesia in the acetic acid-induced writhing mouse pain model; assay type: in vivo; conditions: for reduction of induced analgesia by Naloxone: Table VIII; for ED50: p.o.
Description: (§2) Groups of 10 ICR male mice (Taisho Pharmaceutical Co. Research Center) were used to study each dose of every compound. Ligands or complexes were administered orally or subcutaneously in 0.1 ml of vehicle per 10 g of body weight 30 minutes before the intrapertioneal injection of 0.1 ml of 0.7% acetic acid solution per 10 g of body weight. Number of writhes were counted for each mouse during a period of 10 to 20 min after acetic acid injection. Inhibitory percent was calculated by comparison with the number of writhes in the non-treated control, vehicle-treated, and acetic acid-injected group. The ED50 value and 95% confidence limits were calculated from the inhibitory percent by the method of Litchfield and Wilcoxon.
as §1
NaloxoneHCL (3 umol/kg. i.v., in saline, Endo Lab.) was administered 5
min. before acetic acid injection.

[3] = test system: acetic acid induced writhing in mice; experiment: Acetic acid-induced writhing test; assay type: in vivo, ICR male mice
Description: 1. Acetic acid-induced writhing test as described in Koster et al., "Acetic Acid for Analgesic Screening", Fed. Proc. 18, 412 (1959), incorporated by reference herein; and
as §2

[4] = test system: adjuvant-induced arthritic pain in rats; experiment: Adjuvant-induced arthritic pain; assay type: in vivo, male Sprague-Dawley rats
Excerpt: 2. Adjuvant-induced arthritic pain as described in:
S. KUZNA, et al., Measurement of Arthritic Pain and Effects of Analgesics in the Adjuvant-Treated Rat, Chem. Pharm. Bull. 23, 1184-1191 (1975);
C. A. WINTER, et al., Analgesic Activity of Diflunisal in Rats with Hyperalygesia Induced by Freud's Adjuvant, J. Pharmacol. Exp. Ther. 211, 678-685 (1979; and
M. E. ROSENTHALE, et al., Adjuvant Arthritis:Immuno-Pathological and Hyperalgesic Features, Fed. Proced. 41, 2577-2582 (1982),
incorporated by reference herein.
Groups of 5-6 male Sprague-Dawley rats (Taisho Pharmaceutical Co. Research Center) weighing 140 to 160 g at the time of Mycobacterium butyricum (adjuvant, Difco Laboratories, Detroit, Mich.) injection were used to study each compound. Rats were injected intradermally at the base of the tail with 0.1 ml of a parafin oil suspension of 0.5 mg of heat-killed mycobacterium. Fifteen to 19 days later, drugs were administered orally or subcutaneously in 0.5 ml of vehicle per 100 g of body weight to rats showing the nociceptive reaction, vocalization following a gentle flexion of the tarsal-tibial joint of the inflamed hind-paw. Vocalization responses were measured every hour for 5 hours. […] The ED50 value and 95% confidence limits were calculated from the positive rate for non-treated controls, vehicle-treated adjuvant arthritic rats, by the method of Litchfield and Wilcoxin.
as §1

[5] = test system: acetic acid-induced writhing mouse pain model; experiment: Comparison/potentiation of analgesic activity with morphine in the acetic acid-induced writhing mouse pain model; assay type: in vivo
Description: as §2

[6] = oral, 5% gum arabic, 0.45 mmol/kg
[7] = oral, 5% gum arabic, 0.90 mmol/kg
[8] = oral, 5% gum arabic, 0.006 mmol/kg
[9] = oral, 5% gum arabic, 0.013 mmol/kg

Work on CCN(CC)C(=S)[S-].CCN(CC)C(=S)[S-].[Cu+2] [Cu(II)(DDC)2, Bisdiethyldithiocarbamatocopper(II)] yielded an Inhibition % ([1]; 555 umol/kg s.c., 30 min) of 29%, an Inhibition % ([1]; 555 umol/kg s.c., 60 min) of 42% and an Inhibition % ([1]; 555 umol/kg s.c., 120 min) of 45%. For the same compound, the Inhibition % ([1]; 555 umol/kg s.c., 180 min) was 29%, the “duration of analgesic effect” value [1] was “prolonged duration of analgesic effect” and the “% Inhibition” value ([2]; 555 umol/kg s.c., with Naloxone HCl 3 umol/kg i.v.) was 29%. For the same compound, the “% Inhibition” value ([2]; 555 umol/kg s.c., without naloxone) was 45% and the “reduction of induced analgesia by Naloxone” value [2] was “reduction”.

With CC(C)c1cc(C(=O)O)c(O)c(C(C)C)c1 [3,5-Dips, 3,5-diisopropylsalicylic acid, reference compound] the ED50 ([3]; oral, 5% gum arabic in saline) was 0.27 mmol/kg, the “% Inhibition” value [3, 6] was 66% and the “% Inhibition” value [3, 7] was 88%. The ED50 ([3]; oral, PG-PVA in saline) was 0.44 mmol/kg, the “% Inhibition” value ([3]; oral, PG-PVA, 0.45 mmol/kg) was 56% and the “% Inhibition” value ([3]; oral, PG-PVA, 0.90 mmol/kg) was 78%. The ED50 ([3]; s.c., PG-PVA in saline) was 0.23 mmol/kg, the “% Inhibition” value ([3]; s.c., PG-PVA, 0.11 mmol/kg) was 22% and the “% Inhibition” value ([3]; s.c., PG-PVA, 0.23 mmol/kg) was 49%. The “% Inhibition” value ([3]; s.c., PG-PVA, 0.45 mmol/kg) was 91%, the ED50 ([4]; oral, 5% gum arabic in saline) was 0.36 mmol/kg and the “% Inhibition” value ([4]; oral, 5% gum arabic, 0.22 mmol/kg) was 30%. The “% Inhibition” value [4, 6] was 53%, the “% Inhibition” value [4, 7] was 92% and the ED50 ([4]; oral, PG-PVA in saline) was over 0.90 mmol/kg. For the same compound, the “% Inhibition” value ([4]; oral, PG-PVA, 0.45 mmol/kg) was 27% and the “% Inhibition” value ([4]; oral, PG-PVA, 0.90 mmol/kg) was 43%.

For COc1ccc2c(c1)c(CC(=O)[O-])c(C)n2C(=O)c1ccc(Cl)cc1.COc1ccc2c(c1)c(CC(=O)[O-])c(C)n2C(=O)c1ccc(Cl)cc1.COc1ccc2c(c1)c(CC(=O)[O-])c(C)n2C(=O)c1ccc(Cl)cc1.COc1ccc2c(c1)c(CC(=O)[O-])c(C)n2C(=O)c1ccc(Cl)cc1.[Cu+2].[Cu+2] [Cu(II)2 (indomethacin)4], the Inhibition % ([1]; 2 umol/kg p.o., 30 min) was 54%, the Inhibition % ([1]; 2 umol/kg p.o., 60 min) was 49% and the Inhibition % ([1]; 2 umol/kg p.o., 120 min) was 43%. The Inhibition % ([1]; 2 umol/kg p.o., 180 min) was 68%, the Inhibition % ([1]; 2 umol/kg p.o., 240 min) was 33% and the “duration of analgesic effect” value [1] was “prolonged duration of analgesic effect”. The “% Inhibition” value ([2]; 0.5 umol/kg p.o., with Naloxone HCl 3 umol/kg i.v.) was 19%, the “% Inhibition” value ([2]; 0.5 umol/kg p.o., without naloxone) was 43% and the “% Inhibition” value ([2]; 1 umol/kg p.o., with Naloxone HCl 3 umol/kg i.v.) was 52%. The “% Inhibition” value ([2]; 1 umol/kg p.o., without naloxone) was 62%, the “% Inhibition” value ([2]; 2 umol/kg p.o., with Naloxone HCl 3 umol/kg i.v.) was 69% and the “% Inhibition” value ([2]; 2 umol/kg p.o., without naloxone) was 76%. For the same compound, the “reduction of induced analgesia by Naloxone” value [2] was “reduction”, the ED50 ([2]; with Naloxone HCl 3 umol/kg i.v.) was 1.1 µmol/kg and the ED50 ([2]; without naloxone) was 0.6 µmol/kg. The ED50 ([3]; oral, 5% gum arabic in saline) was 0.012 mmol/kg, the “analgesic effectiveness versus parent ligand” value ([3]; oral, 5% gum arabic in saline) was “more effective than their parent ligands” and the “% Inhibition” value [3, 8] was 33%. The “% Inhibition” value [3, 9] was 50%, the “% Inhibition” value ([3]; oral, 5% gum arabic, 0.025 mmol/kg) was 73% and the “analgesic effectiveness versus parent ligand” value ([3]; oral, PG-PVA) was “more effective than their parent ligands”. For the same compound, the ED50 ([3]; oral, PG-PVA in saline) was 0.002 mmol/kg, the “% Inhibition” value ([3]; oral, PG-PVA, 0.001 mmol/kg) was 38% and the “% Inhibition” value ([3]; oral, PG-PVA, 0.002 mmol/kg) was 53%. For the same compound, the “% Inhibition” value ([3]; oral, PG-PVA, 0.004 mmol/kg) was 75%, the ED50 ([3]; s.c., PG-PVA in saline) was 0.002 mmol/kg and 0.003 mmol/kg and the “% Inhibition” value ([3]; s.c., PG-PVA, 0.002 mmol/kg) was 34%. The “% Inhibition” value ([3]; s.c., PG-PVA, 0.003 mmol/kg) was 53%, the “% Inhibition” value ([3]; s.c., PG-PVA, 0.006 mmol/kg) was 70% and the ED50 ([4]; oral, 5% gum arabic in saline) was 0.007 mmol/kg. The “% Inhibition” value ([4]; oral, 5% gum arabic, 0.003 mmol/kg) was 27%, the “% Inhibition” value [4, 8] was 47% and the “% Inhibition” value [4, 9] was 70%. The ED50 ([4]; oral, PG-PVA in saline) was 0.002 mmol/kg, the “% Inhibition” value ([4]; oral, PG-PVA, 0.001 mmol/kg) was 20% and the “% Inhibition” value ([4]; oral, PG-PVA, 0.002 mmol/kg) was 40%. The “% Inhibition” value ([4]; oral, PG-PVA, 0.003 mmol/kg) was 87%, the ED50 ([4]; s.c., PG-PVA in saline) was 0.002 mmol/kg and the “% Inhibition” value ([4]; s.c., PG-PVA, 0.001 mmol/kg) was 17%. The “% Inhibition” value ([4]; s.c., PG-PVA, 0.002 mmol/kg) was 43%, the “% Inhibition” value ([4]; s.c., PG-PVA, 0.003 mmol/kg) was 60% and the “% Inhibition” value ([5]; 0.5 umol/kg, orally) was 21%. For the same compound, the “% Inhibition” value ([5]; 1.0 umol/kg, orally) was 46%, the “% Inhibition” value ([5]; 2.0 umol/kg, orally) was 54% and the “potentiation of opioid analgesia” value ([5]; Table IX) was “potentiation of opioid analgesia”. The ED50 ([5]; complex alone, orally) was 1.5 µmol/kg.
